Target: T1, GLP-1R (Homo sapiens, UniProt P43220)
T1 construct: host or cells: CRE-bla CHO-K1
Experiment: EC20 GLP-1(9-36) PAM cAMP assay: dose response of compound in the presence of fixed concentration of GLP-1(9-36)
Type: cell-based
Details: GLP-1R CRE-bla CHO-K1 cells, compound dose response in presence of fixed concentration of GLP-1(9-36)
Experimental: EC20 GLP-1(9-36) PAM cAMP Assay: Dose Response of Compound in the Presence of Fixed Concentration of GLP-1 (9-36).
GLP-1R CRE-bla CHO-K1 cells cultured in growth medium (DMEM-High glucose, 10% dialyzed FBS, 0.1 mM NEAA, 25 mM Hepes, 100 U/mL penicillin/100 μg/mL streptomycin, 5 μg/mL Blasticidin, 600 μg/mL Hygromycin) were tryspsinized and plated in suspension into 384 well white flat bottom plates at 5000 cells/well in 12 μL assay buffer (Hanks Balanced Salt solution, 10 mM Hepes, 0.1% BSA, pH 7.4). A 5× compound dose response curve (12-point) was generated in assay buffer containing 1.5 mM IBMX, 12.5% DMSO. GLP-1(9-36) was diluted to 4.2 μM in assay buffer containing 1.5 mM IBMX and 12.5% DMSO. The 5× compound dose response was added (3 μL), followed by 0.5 μL of GLP-1(9-36) and cells were incubated for 30 min at 37° C. Direct detection of cAMP was carried out using DiscoveRx HitHunter cAMP kit according to manufacturer's instructions and luminescence was read using a SpectraMax M5 plate reader. Luminescence was converted to total cAMP using a cAMP standard curve and data was analyzed by non-linear regression to determine the EC50 and Emax.
GLP-1(7-36): […]-NH2. GLP-1(9-36): […]-NH2. GLP-1(7-36) was purchased from GenScript. GLP-1(9-36) was purchased from Biopeptide Co., Inc.

T1 sequence (P43220 24-463): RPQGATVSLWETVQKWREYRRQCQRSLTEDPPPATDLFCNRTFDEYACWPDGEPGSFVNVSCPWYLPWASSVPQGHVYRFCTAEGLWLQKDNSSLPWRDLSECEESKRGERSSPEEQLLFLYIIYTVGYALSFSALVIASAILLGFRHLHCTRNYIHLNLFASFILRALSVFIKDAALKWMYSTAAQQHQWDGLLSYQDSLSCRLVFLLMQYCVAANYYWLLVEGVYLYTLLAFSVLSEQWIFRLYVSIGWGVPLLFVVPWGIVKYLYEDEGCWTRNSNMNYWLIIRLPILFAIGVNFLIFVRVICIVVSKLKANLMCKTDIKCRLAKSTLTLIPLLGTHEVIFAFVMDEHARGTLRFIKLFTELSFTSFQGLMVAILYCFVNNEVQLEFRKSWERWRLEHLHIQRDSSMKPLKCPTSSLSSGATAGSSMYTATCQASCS
T1 sequence (P01275 100-127 partner limits assumed): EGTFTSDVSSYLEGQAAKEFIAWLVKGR

Structure (SMILES)	EC50
CC(C)(C)c1ccc(C(=O)N[C@@H](Cc2ccc(-c3ncc(-c4cccc(C(F)(F)F)c4)cn3)cc2)C(=O)O)cc1 [Compound 210]	2500 to 5000 nM
C[C@@H](NC(=O)[C@H](Cc1ccc(-c2ncc(-c3ccc(C(C)(C)C)cc3)cn2)cc1)NC(=O)c1ccc(C(C)(C)C)s1)C(=O)O [Compound 357]	800 to 2500 nM
CCCCCCCOc1ccc(-c2cnc(-c3ccc(C[C@H](NC(=O)c4ccc(C(C)(C)C)s4)C(=O)N[C@@H](C)C(=O)O)cc3)nc2)cc1 [Compound 333]	< 800 nM
CCCCCCCOc1ccc(N2CCN(c3ccc(C[C@H](NC(=O)c4ccc(C(C)(C)C)s4)C(=O)O)cc3)C2=O)cc1 [Compound 262]	2500 to 5000 nM
CCCCCCCOc1ccc(-c2csc(-c3ccc(C[C@H](NC(=O)c4ccc(C(C)(C)C)cc4)C(=O)O)cc3)n2)cc1 [Compound 79]	800 to 2500 nM
CCCCCCCOc1ccc(-c2ccc(-c3ccc(C[C@H](NC(=O)c4ccc(C(C)(C)C)s4)C(=O)NCC(=O)O)cc3)nc2)cc1 [Compound 285]	800 to 2500 nM
CC(C)(C)c1ccc(C(=O)N[C@@H](Cc2ccc(-c3ncc(-c4ccc(-c5ccccc5)cc4)cn3)cc2)C(=O)O)cc1 [Compound 205]	800 to 2500 nM
COc1ccc(-c2cnc(-c3ccc(C[C@H](NC(=O)c4ccc(C(C)(C)C)cc4)C(=O)O)cc3)nc2)cc1 [Compound 198]	5000 to 10000 nM
CCCCCCCOc1ccc(-c2cnc(-c3ccc(C[C@H](NC(=O)c4ccc(C(C)(C)C)s4)C(=O)N[C@@H](CC(N)=O)C(=O)O)cc3)nc2)cc1 [Compound 321]	< 800 nM
CCCCCCCOc1ccc(-c2cnc(-c3ccc(C[C@H](NC(=O)c4cccc(C#N)c4)C(=O)O)cc3)nc2)cc1 [Compound 105]	5000 to 10000 nM
CCCCCCCOc1ccc(-c2cnc(-c3ccc(C[C@H](NC(=O)c4ccc(OCC(C)C)cc4)C(=O)O)cc3)nc2)cc1 [Compound 121]	800 to 2500 nM
CCCCCCCOc1ccc(-c2cnc(-c3ccc(C[C@H](NC(=O)c4cnn(C(C)C)c4)C(=O)O)cc3)nc2)cc1 [Compound 139]	800 to 2500 nM
CCCCCCCOc1ccc(-c2cnc(-c3ccc(C[C@H](NC(=O)c4ccc(N)cc4)C(=O)O)cc3)nc2)cc1 [Compound 102]	800 to 2500 nM
CCCCCCCOc1ccc(-c2cnc(-c3ccc(C[C@H](NC(=O)c4ccc(C(C)(C)C)s4)C(=O)N[C@H](CCC(N)=O)C(=O)O)cc3)nc2)cc1 [Compound 341]	< 800 nM
CCCCCCCOc1ccc(-c2cnc(-c3ccc(C[C@H](NC(=O)c4ccc(C(C)(C)C)s4)C(=O)NCC4(C(=O)O)CC4)cc3)nc2)cc1 [Compound 340]	800 to 2500 nM
CCCCCCCCCCCCOc1ccc(-c2cnc(-c3ccc(C[C@H](NC(=O)c4ccc(C(C)(C)C)s4)C(=O)O)cc3)nc2)cc1 [Compound 250]	800 to 2500 nM
CCCCCCCOc1ccc(-c2cnc(-c3ccc(C[C@H](NC(=O)c4ccc(C(C)C)cc4)C(=O)N[C@@H](CO)C(=O)O)cc3)nc2)cc1 [Compound 309]	< 800 nM
COc1ccc(-c2ccc(-c3nc(-c4ccc(C[C@H](NC(=O)c5ccc(C(C)(C)C)cc5)C(=O)O)cc4)no3)cc2)cc1OC [Compound 30]	800 to 2500 nM
CC(C)(C)c1ccc(-c2cnc(-c3ccc(C[C@H](NC(=O)c4ccc(C(C)(C)C)s4)C(=O)N[C@H](CCC(=O)O)C(=O)O)cc3)nc2)cc1 [Compound 359]	800 to 2500 nM
CC(C)c1ccc(-c2cnc(-c3ccc(C[C@H](NC(=O)c4ccc(C(C)(C)C)cc4)C(=O)O)cc3)nc2)cc1 [Compound 195]	800 to 2500 nM
CCCCCCCOc1ccc(-c2cnc(-c3ccc(C[C@H](NC(=O)c4cc5c(s4)CCC(C)C5)C(=O)O)cc3)nc2)cc1 (some centres unmarked) [Compound 151]	800 to 2500 nM

Structure (SMILES)	EC50
CCCCCCCOc1ccc(-c2cnc(-c3ccc(C[C@H](NC(=O)c4ccc(C(C)(C)C)o4)C(=O)O)cc3)nc2)cc1 [Compound 133]	800 to 2500 nM
Cc1ccc(-c2ccc(-n3cc(-c4ccc(C[C@H](NC(=O)c5ccc(C(C)(C)C)cc5)C(=O)O)cc4)cn3)cc2)cc1 [Compound 288, (S)-2-(4-(tert-butyl)benzamido)-3-(4-(1-(4′-methyl-[1,1′-biphenyl]-4-yl)-1H-pyrazol-4-yl)phenyl)propanoic acid]	2500 to 5000 nM
CCCCCCCOc1ccc(-c2cnc(-c3ccc(C[C@H](NC(=O)c4ccccc4C)C(=O)O)cc3)nc2)cc1 [Compound 119]	< 800 nM
CC(C)(C)c1ccc(-c2cnc(-c3ccc(C[C@H](NC(=O)c4ccc(C(C)(C)C)s4)C(=O)N4CCC[C@@H]4C(=O)O)cc3)nc2)cc1 [Compound 358]	800 to 2500 nM
CCCCCCCOc1ccc(-c2cnc(-c3ccc(C[C@H](NC(=O)c4ccc(C(C)(C)C)s4)C(=O)O)cc3)cn2)cc1 [Compound 281]	< 800 nM
Cc1ccc(-c2cnc(-c3ccc(C[C@H](NC(=O)c4ccc(C(C)(C)C)cc4)C(=O)O)cc3)nc2)cc1 [Compound 203]	5000 to 10000 nM
CCCCCCCOc1ccc(-c2cnc(-c3ccc(C[C@H](NC(=O)c4ccc(C(C)(C)C)s4)C(=O)N[C@H](CC(=O)O)Cc4ccccc4)cc3)nc2)cc1 [Compound 343]	800 to 2500 nM
CCCCCCCOc1ccc(-c2cnc(-c3ccc(C[C@H](NC(=O)c4csc(C(C)C)c4)C(=O)O)cc3)nc2)cc1 [Compound 146]	2500 to 5000 nM
CCCCCCCOc1ccc(-c2cnc(-c3ccc(C[C@H](NC(=O)c4ccc(CCC)cc4)C(=O)O)cc3)nc2)cc1 [Compound 101]	800 to 2500 nM
CCCCCCCOc1ccc(-c2cnc(-c3ccc(C[C@H](NC(=O)c4cnc(C(C)C)nc4)C(=O)O)cc3)nc2)cc1 [Compound 131]	800 to 2500 nM
CCCCCCCOc1ccc(-c2nc(-c3ccc(C[C@H](NC(=O)c4ccc(C(C)(C)C)cc4)C(=O)NCC(=O)O)cc3)no2)cc1 [Compound 67, (S)-2-(2-(4-(tert-butyl)benzamido)-3-(4-(5-(4-(heptyloxy)phenyl)-1,2,4-oxadiazol-3-yl)phenyl)propanamido)acetic acid]	800 to 2500 nM
CC(C)(C)c1ccc(C(=O)N[C@@H](Cc2ccc(-c3noc(-c4ccc(-c5ccc(F)cc5F)cc4)n3)cc2)C(=O)O)cc1 [Compound 24]	800 to 2500 nM
CCCCCCOC1=NCc2cc(-c3cnc(-c4ccc(C[C@H](NC(=O)c5ccc(C(C)(C)C)cc5)C(=O)O)cc4)nc3)ccc21 [Compound 256]	5000 to 10000 nM
CCCCCCCOc1ccc(-c2cnc(-c3ccc(C[C@H](NC(=O)c4ccc(C(C)C)cc4)C(=O)N[C@@H](CC(N)=O)C(=O)O)cc3)nc2)cc1 [Compound 306]	< 800 nM
CCCCCCCOc1ccc(-c2cnc(-c3ccc(C[C@H](NC(=O)c4c(Cl)ccc(F)c4Cl)C(=O)O)cc3)nc2)cc1 [Compound 116]	800 to 2500 nM
CCCCCCCOc1ccc(-c2cnc(-c3ccc(C[C@H](NC(=O)c4ccc(C(C)(C)C)s4)C(=O)N4CCC(C(=O)O)C4)cc3)nc2)cc1 (some centres unmarked) [Compound 344]	< 800 nM
CCCCCCCOc1ccc(-c2cnc(-c3ccc(C[C@H](NC(=O)c4ccc(OC)cc4)C(=O)O)cc3)nc2)cc1 [Compound 86]	800 to 2500 nM
CCCCCCCOc1ccc(-c2cnc(-c3ccc(C[C@H](NS(=O)(=O)c4ccc(C)cc4)C(=O)O)cc3)nc2)cc1 [Compound 187]	2500 to 5000 nM
CC(C)(C)c1ccc(-c2cnc(-c3ccc(C[C@H](NC(=O)c4ccc(C(C)(C)C)s4)C(=O)N[C@H](CCC(N)=O)C(=O)O)cc3)nc2)cc1 [Compound 353]	800 to 2500 nM
CCCCCCCOc1ccc(-c2cnc(-c3ccc(C[C@H](NC(=O)c4cc(C)c(CC)s4)C(=O)O)cc3)nc2)cc1 [Compound 145]	800 to 2500 nM
